In patent publication US10562914B2, “Imidazoles as histone demethylase inhibitors” (Istituto Europeo di Oncologia S.r.l., priority 2016, dated 2020):
Structures can show the parent of a compound that is named as a salt.

Key:
human leukemia NB4 cells = assay: Cell growth, CellTiter-Fluor viability assay, NB4; format: cell-based; conditions: NB-4, 48 h incubation, read-out: IC50 against human leukemia NB4 cells
From the text: (§1) CellTiter-Flor® (Promega) is as a nonlytic, single-reagent-addition fluorescence assay that measures the relative number of living cells in a culture population after experimental manipulation. The CellTiter-Fluor™ Cell Viability Assay measures the conserved and constitutive protease activity within live cells and therefore acts as a marker for cell viability.
(§2) Human leukemia MV4-11 cells, (obtained from the Deutsche Sammlung von Mikroorganismen und Zellkulturen, ACC 102) or NB4 cells, (obtained from the Deutsche Sammlung von Mikroorganismen und Zellkulturen) in exponential growth, were incubated for 48 h with different concentrations of the inhibitors. After 48 h a volume of CellTiter-Fluor® Reagent equal to one fifth of volume of cell culture medium was added. The content was mixed and incubates for at least 90 min at 37° C. degree to obtain a stable signal. The fluorescence was recorded using an excitation wavelength of 360 nm and an emission at 535 nm. The IC50 was calculated using GraphPad Software.

[1] = target: T1, human recombinant KDM1A/CoREST protein (Homo sapiens, UniProt O60341); assay: Assay of enzyme inhibition of KDM1A (LSD1), TR-FRET; format: biochemical; conditions: 0.25 nM KDM1A/CoREST, 50 nM H3K4 monomethylated peptide, 20 min at RT
T1 construct: made in house; host or cells: E. coli
Experimental: 2.1 Assay of Enzyme Inhibition of KDM1A (LSD1)
The intensity of the light emission is proportional to the level of biotinylated reaction product. The complex of human recombinant KDM1A/CoREST protein was produced in E. coli as separate proteins and co-purified as previously described.
Demethylase reaction was started by the addition of 50 nM histone H3K4 monomethylated.
The resulting mixture was incubated in the dark for 1 h at RT. Then, TR-FRET signal was read by a fluorimeter (Infinite® F200, Tecan, Männedorf, Swirzerland) (Excitation 320 nm, Emission 665 nm and 620 nm, delay time 50 μs, window time 100 μs).
The inhibitor concentrations ranged from 0.025 to 500 μM (serial 1:3 dilutions). The IC50 was calculated using GraphPad Software.

[2] = test system: Human leukemia MV4-11 cells; assay: Cell growth, CellTiter-Fluor viability assay, MV4-11; format: cell-based; conditions: 48 h incubation, read-out: IC50 against human leukemia MV4-11 cells
From the text: as §1, §2

CCc1c(-c2ccccc2)nc(-c2cc3sccc3n2C)n1CCOc1ccc(OC2CCNCC2)cc1 [Example 31, 5-[5-ethyl-4-phenyl-1-[2-[4-(4-piperidyloxy)phenoxy]ethyl]imidazol-2-yl]-4-methyl-thieno[3,2-b]pyrrole]
IC50 (human leukemia NB4 cells): < 20 µM | IC50 [1]: < 0.1 µM | IC50 [2]: < 10 µM

CCc1c(-c2ccccc2)nc(-c2cc3sccc3n2C)n1CCOc1cccc(OC2CCNCC2)c1 [Example 32, 5-[5-ethyl-4-phenyl-1-[2-[3-(4-piperidyloxy)phenoxy]ethyl]imidazol-2-yl]-4-methyl-thieno[3,2-b]pyrrole]
IC50 (human leukemia NB4 cells): < 20 µM | IC50 [1]: < 0.1 µM | IC50 [2]: < 10 µM

CCc1cn(CCOc2ccc(OCC3CCNC3)cc2)c(-c2cc3sccc3n2C)n1 (stereo not drawn) [Example 22, 5-[4-ethyl-1-[2-[4-(pyrrolidin-3-ylmethoxy)phenoxy]ethyl]imidazol-2-yl]-4-methyl-thieno[3,2-b]pyrrole hydrochloride]
IC50 (human leukemia NB4 cells): < 20 µM | IC50 [1]: < 0.1 µM | IC50 [2]: < 10 µM

CCc1cnc(-c2cc3sccc3n2C)n1CCCc1ccc(OC2CCNCC2)cc1 [Example 28, 5-[5-ethyl-1-[3-[4-(4-piperidyloxy)phenyl]propyl]imidazol-2-yl]-4-methyl-thieno[3,2-b]pyrrole hydrochloride]
IC50 (human leukemia NB4 cells): < 20 µM | IC50 [1]: < 0.1 µM | IC50 [2]: < 10 µM

CCc1cnc(-c2cc3sccc3n2C)n1CCOc1ccc(OCC2CCNCC2)cc1 [Example 24, 5-[5-ethyl-1-[2-[4-(4-piperidylmethoxy)phenoxy]ethyl]imidazol-2-yl]-4-methyl-thieno[3,2-b]pyrrole trifluoroacetate]
IC50 (human leukemia NB4 cells): < 20 µM | IC50 [1]: < 0.1 µM | IC50 [2]: < 10 µM

CCc1cn(CCOc2cccc(OC3CCNCC3)c2)c(-c2cc3sccc3n2C)n1 [Example 18, 5-[4-ethyl-1-[2-[3-(4-piperidyloxy)phenoxy]ethyl]imidazol-2-yl]-4-methyl-thieno[3,2-b]pyrrole hydrochloride]
IC50 (human leukemia NB4 cells): < 20 µM | IC50 [1]: < 0.1 µM | IC50 [2]: < 10 µM

CCc1nc(-c2cc3sccc3n2C)n(CCOc2cccc(OC3CCNCC3)c2)c1-c1ccccc1 [Example 33, 5-[4-ethyl-5-phenyl-1-[2-[3-(4-piperidyloxy)phenoxy]ethyl]imidazol-2-yl]-4-methyl-thieno[3,2-b]pyrrole]
IC50 (human leukemia NB4 cells): < 20 µM | IC50 [1]: < 0.1 µM | IC50 [2]: < 10 µM

CCc1cnc(-c2cc3sccc3n2C)n1CCOc1ccc(OC2CCNCC2)cc1 [Example 21, 5-[5-ethyl-1-[2-[4-(4-piperidyloxy)phenoxy]ethyl]imidazol-2-yl]-4-methyl-thieno[3,2-b]pyrrole]
IC50 (human leukemia NB4 cells): < 20 µM | IC50 [1]: < 0.1 µM | IC50 [2]: < 10 µM

CCc1cnc(-c2cc3sccc3n2C)n1CCOc1ccc(OC2CCCNCC2)cc1 (stereo not drawn) [Example 26, 5-[1-[2-[4-(azepan-4-yloxy)phenoxy]ethyl]-5-ethyl-imidazol-2-yl]-4-methyl-thieno[3,2-b]pyrrole trifluoroacetate]
IC50 (human leukemia NB4 cells): < 20 µM | IC50 [1]: < 0.1 µM | IC50 [2]: < 10 µM

CCc1cn(CCOc2ccc(OCC3CCNCC3)cc2)c(-c2cc3sccc3n2C)n1 [Example 23, 5-[4-ethyl-1-[2-[4-(4-piperidylmethoxy)phenoxy]ethyl]imidazol-2-yl]-4-methyl-thieno[3,2-b]pyrrole hydrochloride]
IC50 (human leukemia NB4 cells): < 20 µM | IC50 [1]: < 0.1 µM | IC50 [2]: < 10 µM

CCc1cnc(-c2cc3sccc3n2C)n1CCOc1cccc(OC2CCNCC2)c1 [Example 19, 5-[5-ethyl-1-[2-[3-(4-piperidyloxy)phenoxy]ethyl]imidazol-2-yl]-4-methyl-thieno[3,2-b]pyrrole]
IC50 (human leukemia NB4 cells): < 20 µM | IC50 [1]: < 0.1 µM | IC50 [2]: < 10 µM
